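Briefly, cells in 96-well plates were exposed to five compound concentrations for 48 h, and endpoints were estimated by linear interpolation. At the GI50, growth is halved.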 Calls of active or inactive are those of the source. Rule as the data show it: active = GI50 up to about 1.1 µM and inactive = higher.
Tests used:
Experiment in all cases: NCI-60 cell line screen, 48 h
NCI-H23 = tested on: NCI-H23
NCI-H226 = tested on: NCI-H226
CCRF-CEM = tested on: CCRF-CEM
OVCAR-4 = tested on: OVCAR-4
XF498 = tested on: XF498
SF-295 = tested on: SF-295
HL-60 = tested on: HL-60
MCF7 = tested on: MCF7
RPMI-8226 = tested on: RPMI-8226
NCI/ADR-RES = tested on: NCI/ADR-RES
SN12C = tested on: SN12C
HOP-92 = tested on: HOP-92
HT-29 = tested on: HT-29
OVCAR-3 = tested on: OVCAR-3
HOP-62 = tested on: HOP-62
A549 = tested on: A549
OVCAR-5 = tested on: OVCAR-5
SK-MEL-2 = tested on: SK-MEL-2
HCT-116 = tested on: HCT-116
UACC-62 = tested on: UACC-62
UO-31 = tested on: UO-31
EKVX = tested on: EKVX
SNB-75 = tested on: SNB-75
SNB-19 = tested on: SNB-19
NCI-H460 = tested on: NCI-H460
K562 = tested on: K562
LOX IMVI = tested on: LOX IMVI
KM12 = tested on: KM12
DMS-114 = tested on: DMS-114
SK-OV-3 = tested on: SK-OV-3
SNB-78 = tested on: SNB-78
HCC 2998 = tested on: HCC 2998
RXF 393 = tested on: RXF 393
SW-620 = tested on: SW-620
SK-MEL-28 = tested on: SK-MEL-28
HOP-18 = tested on: HOP-18
OVCAR-8 = tested on: OVCAR-8
NCI-H522 = tested on: NCI-H522
SF-268 = tested on: SF-268
COLO 205 = tested on: COLO 205
KM-20L2 = tested on: KM-20L2
IGROV-1 = tested on: IGROV-1
UACC-257 = tested on: UACC-257
M19-MEL = tested on: M19-MEL
U-251 = tested on: U-251
MOLT-4 = tested on: MOLT-4
SF-539 = tested on: SF-539
SK-MEL-5 = tested on: SK-MEL-5
DLD-1 = tested on: DLD-1
CAKI-1 = tested on: CAKI-1
Malme-3M = tested on: Malme-3M
DMS-273 = tested on: DMS-273
A498 = tested on: A498
HCT-15 = tested on: HCT-15
786-0 = tested on: 786-0
TK-10 = tested on: TK-10
M14 = tested on: M14
LXFL 529 = tested on: LXFL 529
SR = tested on: SR
ACHN = tested on: ACHN

Measured: GI50

COc1cc(C2c3cc4c(cc3[C@@H](Nc3cnc5ccccc5c3)C3COC(=O)[C@H]23)OCO4)cc(OC)c1O (some centres undefined)
active: NCI-H23 0.311 µM | NCI-H226 0.152 µM | CCRF-CEM 0.043 µM | OVCAR-4 1.05 µM | XF498 0.474 µM | SF-295 0.148 µM | HL-60 < 0.033 µM | MCF7 0.0834 µM | RPMI-8226 0.159 µM | SN12C 0.338 µM | HOP-92 0.381 µM | HT-29 0.634 µM | HOP-62 0.128 µM | A549 < 0.01 µM | OVCAR-5 0.736 µM | HCT-116 0.46 µM | UACC-62 0.301 µM | UO-31 0.275 µM | SNB-75 0.478 µM | SNB-19 0.221 µM | NCI-H460 < 0.01 µM | K562 0.649 µM | LOX IMVI 0.37 µM | KM12 0.883 µM | DMS-114 0.277 µM | SK-OV-3 0.615 µM | HCC 2998 0.794 µM | RXF 393 0.912 µM | SW-620 0.296 µM | HOP-18 0.34 µM | OVCAR-8 0.346 µM | NCI-H522 1.03 µM | SF-268 0.327 µM | UACC-257 0.839 µM | M19-MEL 0.422 µM | U-251 0.238 µM | MOLT-4 < 0.01 µM | SF-539 0.168 µM | SK-MEL-5 0.193 µM | DLD-1 1.05 µM | CAKI-1 0.129 µM | Malme-3M 0.621 µM | DMS-273 0.047 µM | A498 0.22 µM
0.148 µM: HCT-15
inactive: NCI/ADR-RES 1.51 µM | OVCAR-3 1.65 µM | SK-MEL-2 1.76 µM | EKVX 1.27 µM | SNB-78 2.69 µM | SK-MEL-28 1.14 µM | COLO 205 1.28 µM | KM-20L2 1.47 µM | IGROV-1 1.39 µM

CSc1nc(-c2ccccc2)nc(N2CCOCC2)[s+]1
37.8 µM: HCT-15
inactive: NCI-H23 > 100 µM | NCI-H226 > 100 µM | CCRF-CEM 22.3 µM | OVCAR-4 > 100 µM | HL-60 42.8 µM | SN12C > 100 µM | 786-0 > 100 µM | TK-10 > 100 µM | HT-29 53.1 µM | OVCAR-3 > 100 µM | HOP-62 > 100 µM | A549 > 100 µM | OVCAR-5 > 100 µM | SK-MEL-2 > 100 µM | HCT-116 > 100 µM | UACC-62 28.6 µM | UO-31 > 100 µM | EKVX > 100 µM | SNB-75 > 100 µM | SNB-19 > 100 µM | NCI-H460 39 µM | K562 37.6 µM | M14 > 100 µM | LOX IMVI 43 µM | KM12 > 100 µM | SK-OV-3 > 100 µM | SNB-78 > 100 µM | HCC 2998 > 100 µM | RXF 393 21.3 µM | SW-620 > 100 µM | SK-MEL-28 > 100 µM | HOP-18 > 100 µM | OVCAR-8 > 100 µM | NCI-H522 32.8 µM | SF-268 > 100 µM | COLO 205 37 µM | LXFL 529 37.3 µM | KM-20L2 > 100 µM | IGROV-1 > 100 µM | M19-MEL > 100 µM | SR 16.6 µM | U-251 92.7 µM | MOLT-4 26.8 µM | SF-539 > 100 µM | ACHN > 100 µM | SK-MEL-5 > 100 µM | DLD-1 91.8 µM | Malme-3M > 100 µM | DMS-273 > 100 µM | A498 > 100 µM

CC(=O)/C=C1/c2ccccc2N(C(C)=O)C1O (centres undefined)
inactive: NCI-H23 > 100 µM | CCRF-CEM > 100 µM | OVCAR-4 > 100 µM | SF-295 > 100 µM | HL-60 > 100 µM | RPMI-8226 > 100 µM | SN12C > 100 µM | HOP-92 > 100 µM | 786-0 > 100 µM | HT-29 > 100 µM | OVCAR-3 > 100 µM | HOP-62 > 100 µM | A549 > 100 µM | SK-MEL-2 > 100 µM | HCT-116 > 100 µM | UACC-62 > 100 µM | UO-31 > 100 µM | EKVX > 100 µM | SNB-75 > 100 µM | SNB-19 > 100 µM | NCI-H460 > 100 µM | K562 > 100 µM | M14 > 100 µM | KM12 > 100 µM | DMS-114 > 100 µM | SK-OV-3 > 100 µM | SNB-78 > 100 µM | HCC 2998 > 100 µM | RXF 393 > 100 µM | SW-620 > 100 µM | SK-MEL-28 > 100 µM | HOP-18 > 100 µM | OVCAR-8 > 100 µM | COLO 205 > 100 µM | LXFL 529 > 100 µM | KM-20L2 > 100 µM | IGROV-1 > 100 µM | UACC-257 > 100 µM | M19-MEL > 100 µM | SR > 100 µM | U-251 > 100 µM | MOLT-4 > 100 µM | SF-539 > 100 µM | ACHN > 100 µM | DLD-1 > 100 µM | CAKI-1 > 100 µM | DMS-273 > 100 µM | A498 > 100 µM
> 100 µM: HCT-15

Reference: ChEMBL document CHEMBL1201862, “PubChem BioAssay data set” (2004)
